The source made the active and inactive calls. The rule behind the calls is not given here.
What was measured:
Beta-secretase 1 [1] = target: T1, Beta-secretase 1 (Homo sapiens, UniProt P56817); assay: Inhibition of recombinant human BACE1 (1 to 460 residues) expressed in baculovirus infected insect cells using Rh-EVNLDAEFK-Quencher as substrate incubated under dark condition for 90 mins by FRET assay
Beta-secretase 1 [2] = target: T1, Beta-secretase 1; assay: Inhibition of recombinant human BACE1 (1 to 460 residues) expressed in baculovirus infected insect cells at 50 uM using Rh-EVNLDAEFK-Quencher as substrate incubated under dark condition for 90 mins by FRET assay relative to control
Beta-secretase 1 [3] = target: T1, Beta-secretase 1; assay: Inhibition of recombinant human BACE1 (1 to 460 residues) expressed in baculovirus infected insect cells at 10 uM using Rh-EVNLDAEFK-Quencher as substrate incubated under dark condition for 90 mins by FRET assay relative to control
PC-12 [4] = assay: Neuroprotection against amyloid beta (25 to 35)-induced cell death in rat PC12 cells preincubated for 3 hrs followed by amyloid beta addition measured after 24 hrs by MTT assay; format: functional, cell-based
PC-12 [5] = assay: Neuroprotection against amyloid beta (25 to 35)-induced cell death in rat PC12 cells at 25 uM preincubated for 3 hrs followed by amyloid beta addition measured after 24 hrs by MTT assay relative to control; format: functional
PC-12 [6] = assay: Neuroprotection against amyloid beta (25 to 35)-induced cell death in rat PC12 cells at 10 uM preincubated for 3 hrs followed by amyloid beta addition measured after 24 hrs by MTT assay relative to control; format: functional
PC-12 [7] = assay: Cytotoxicity against rat PC12 cells up to 100 uM after 24 hrs by MTT assay; format: cell-based; settings: pc-12, 24 h
PC-12 [8] = assay: Neuroprotection against amyloid beta (25 to 35)-induced cell death in rat PC12 cells at 15 uM preincubated for 3 hrs followed by amyloid beta addition measured after 24 hrs by MTT assay relative to control; format: functional
[9] = Metal chelating activity assessed as compound-Fe2+ complex formation at 400 uM preincubated with ferrous ion FeCl2 followed by ferrozine addition measured after 10 mins by spectroscopic method
[10] = Metal chelating activity assessed as compound-Fe2+ complex formation at 20 uM after 30 mins by UV-Visible spectroscopic method
[11] = Metal chelating activity assessed as mole fraction of compound required to show 3:2 stoichiometry for Fe2+-compound complex at 20 uM after 30 min by UV-Visible spectroscopic method

T1 sequence (P56817 whole entry, the tested form may be a part): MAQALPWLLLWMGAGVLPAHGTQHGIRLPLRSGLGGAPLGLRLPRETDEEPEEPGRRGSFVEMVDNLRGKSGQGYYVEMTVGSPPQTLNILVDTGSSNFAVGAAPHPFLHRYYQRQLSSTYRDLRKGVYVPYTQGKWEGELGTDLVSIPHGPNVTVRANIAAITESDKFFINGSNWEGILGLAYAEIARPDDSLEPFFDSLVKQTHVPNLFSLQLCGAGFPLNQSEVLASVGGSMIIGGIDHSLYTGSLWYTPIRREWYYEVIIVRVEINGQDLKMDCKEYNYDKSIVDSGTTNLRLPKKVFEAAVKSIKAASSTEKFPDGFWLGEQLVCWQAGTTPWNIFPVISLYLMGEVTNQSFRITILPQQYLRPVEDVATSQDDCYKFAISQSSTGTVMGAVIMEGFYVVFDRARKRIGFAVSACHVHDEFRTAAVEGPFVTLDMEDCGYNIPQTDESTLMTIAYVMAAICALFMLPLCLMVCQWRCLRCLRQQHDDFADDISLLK

Row | SMILES | IC50 (Beta-secretase 1 [1]) [µM] | inhibition (Beta-secretase 1 [2]) [%] | inhibition (Beta-secretase 1 [3]) [%] | IC50 (PC-12 [4]) [µM] | Activity (PC-12 [5]) [%] | Activity (PC-12 [6]) [%] | Activity (PC-12 [7]) | Activity (PC-12 [8]) [%] | Activity [9] [%] | Activity [10] | Activity [11] [molar ratio]
1 | N=c1oc2ccccc2cc1C(=O)Nc1cc(Br)ccc1NCc1cn(Cc2ccc(Cl)c(Cl)c2)nn1 | 7.5 | 60.8 | 52 | 90.5 | 49.8 | 21.8 | Non-Toxic | – | – | – | –
2 | Cc1ccc(Cn2cc(CNc3ccc(Br)cc3NC(=O)c3cc4ccccc4oc3=N)nn2)cc1 | – | 52.4 | 38.3 | – | 19.2 | – | Non-Toxic | 83.8 | – | – | –
3 | O=C(O)/C=C/c1ccc(O)c(O)c1 [CAFFEIC ACID] | – | – | – | 75.8 | – | – | – | – | – | – | –
4 | N=c1oc2ccccc2cc1C(=O)Nc1cc(Br)ccc1NCc1cn(CCCN2C(=O)c3ccccc3C2=O)nn1 | 2.2 | 84.2 | 83.5 | 7.9 | 100 | 78.8 | Non-Toxic | – | 10.2 | – | –
5 | N=c1oc2ccccc2cc1C(=O)Nc1cc(Br)ccc1NCc1cn(Cc2cccc(Cl)c2Cl)nn1 | 15.6 | 62 | 47.8 | 18.9 | 57.2 | 23.6 | Non-Toxic | – | – | – | –
6 | N=c1oc2ccccc2cc1C(=O)Nc1cc(Br)ccc1NCc1cn(CCCCN2C(=O)c3ccccc3C2=O)nn1 | 6.8 | 77.6 | 55.7 | 6.8 | – | 67.8 | Non-Toxic | – | 12.8 | – | –
7 | O=C(O)CN(CCN(CC(=O)O)CC(=O)O)CC(=O)O | – | – | – | – | – | – | – | – | 96.4 | – | –
8 | N=c1oc2ccccc2cc1C(=O)Nc1cc(Br)ccc1NCc1cn(Cc2ccccc2)nn1 | – | 25.2 | 12.1 | – | – | – | Non-Toxic | – | – | – | –
9 | N=c1oc2ccccc2cc1C(=O)Nc1cc(Br)ccc1NCc1cn(Cc2ccc(Br)cc2)nn1 | 6.4 | 100 | 72.3 | 37.8 | 37.5 | 16.4 | Non-Toxic | – | 45.2 | Active | 1.5
10 | COc1ccc(Cn2cc(CNc3ccc(Br)cc3NC(=O)c3cc4ccccc4oc3=N)nn2)cc1 | – | 34.5 | 10 | – | 22 | 28.4 | Non-Toxic | – | – | – | –
11 | N=c1oc2ccccc2cc1C(=O)Nc1cc(Br)ccc1NCc1cn(Cc2ccc(F)cc2)nn1 | – | 45.9 | 21.3 | – | 22.2 | 13.1 | Non-Toxic | – | – | – | –

Reference: ChEMBL document CHEMBL4130540, “Multifunctional iminochromene-2H-carboxamide derivatives containing different aminomethylene triazole with BACE1 inhibitory, neuroprotective and metal chelating properties targeting Alzheimer's disease” (Eur J Med Chem, 2017)
